In US20040007689A1, “Process for controlling the hydrate mix of a compound” (Pfizer Inc., priority 2002, published 2004):

Columns and labels:
[1] = Water content of freeze-dried DSFF product; format: physicochemical; settings: DSFF subjected to a typical freeze-drying process
[2] = Chemical and thermal stability of DSFF hydration forms and hydrate mixes; format: physicochemical; settings: for stability of hydration form (chemical / thermal): hydration forms of DSFF, solid state

| Compound | water content of product of typical freeze-drying process [1] | stability of product of typical freeze-drying process ([2]; DSFF after typical freeze-drying with secondary drying, water content about 1.2% w/w (below monohydrate stoichiometry)) | stability of hydration form (chemical / thermal) [2] |
| --- | --- | --- | --- |
| O=P([O-])([O-])OC(Cn1cncn1)(Cn1cncn1)c1ccc(F)cc1F.[Na+].[Na+] [DSFF, disodium salt of fosfluconazole] | about 1.2 % w/w | chemically unstable and degrades |  |
| O.O.O.O.O.O.O=P([O-])([O-])OC(Cn1cncn1)(Cn1cncn1)c1ccc(F)cc1F.[Na+].[Na+] [hexahydrate, DSFF Hexahydrate] |  |  | chemically and thermally stable |
| O.O.O.O=P([O-])([O-])OC(Cn1cncn1)(Cn1cncn1)c1ccc(F)cc1F.[Na+].[Na+] [trihydrate, DSFF Trihydrate] |  |  | chemically and thermally stable |
